# Reference: EP4361136A1, “COMPOUND FOR THE TREATMENT OF GLIOBLASTOMA” (Universidad De Córdoba, priority 2021, dated 2022)
# Columns and labels:
# glioblastoma (GBM) cells = experiment: In vitro functional assays in glioblastoma cells (proliferation, migration, tumoursphere formation, VEGF secretion, apoptosis, marker expression); assay type: cell-based, human
# Procedure: The proliferation assay (see below) was used to develop a dose-response and IC50 determination of pladienolide-b in glioblastoma cells. The selected doses of pladienolide-b, based on previously reported in vitro studies, were 10^-9 , 10^-7 and 10^-5 M measured 48 h after administration of the SF3B1 inhibitor in glioblastoma cell lines and patient-derived primary glioblastoma cell culture. Least squares regression was used as a method of adjustment to the IC50 determination.
# As described above, cell proliferation and migration in response to pladienolide-b treatment were analyzed using the alamar blue assay (3,000 cells/well for cell lines and 10,000 cells/well for primary cell cultures; Biosource International, # BUF012B) and the wound healing technique (150,000 U-118 MG cells/well), respectively. For the migration assay, U-118 MG cells cultured at confluence were serum deprived for 24 h to achieve cell synchronization and then wounded with a sterile 200 µl pipette tip. Wells were replaced and cells were incubated for 6 h and 24 h with medium supplemented without FBS. Wound healing was compared to the area immediately after wounding. […]
# The VEGF human ELISA kit (ThermoFisher Scientific, no. KHG0112) was used to quantify VEGF secretion in response to pladienolide-b in glioblastoma cell lines, following the manufacturer's instructions. […]
# U-87 MG cells = experiment: Preclinical xenograft GBM mouse model, intratumoral injection; assay type: in vivo, mice
# Procedure: A preclinical xenograft mouse model was developed to test pladienolide-b in vivo. Five-week-old ATHYMFoxn1nu/nu mice (n = 6; Janvier-Labs) were subcutaneously injected with 3×10^6 of U-87 MG cells in both flanks [in 100 µl of basal membrane extract (Trevigen, # 3432-010-01)]. Once the tumour was clearly measurable (10 days after cell inoculation), each mouse received an intratumour injection with 50 µl of pladienolide-b (10^-7 M) in one flank and vehicle (1x DPBS, Sigma-Aldrich, # D1408) used as a control in another flank. Tumour growth was monitored every 2 days using a digital caliper. 20 days after injection, mice were sacrificed and each tumour was dissected, fixed, and sectioned for histopathological examination after staining with haematoxylin and eosin. Examination of the number of mitoses, vascular proliferation and necrosis was performed by experienced pathologists. Additional tumour pieces were in liquid nitrogen until RNA extraction using Trizol reagent and protein extraction using SDS-DTT buffer, as previously reported. One individual was assessed by micro-CT imaging using SkyScan1176 Bruker and a software environment to show the location of the tumour in vivo prior to dissection. 2D analysis along with 3D image rendering was performed using VolView 3.4 software (KitWare Inc). […]
compound,measurement,setting,value
"CC[C@H](O)[C@@H](C)[C@H]1O[C@@H]1C[C@H](C)/C=C/C=C(\C)[C@H]1OC(=O)C[C@H](O)CC[C@@](C)(O)[C@@H](OC(C)=O)/C=C/[C@@H]1C [pladienolide-b, [(2 S, 3 S, 4 E , 6 S , 7 R , 10 R ) -7,10-dihydroxy-2 - [(2 E , 4 E, 6 S ) -7 - [(2 R , 3 R ) -3 - [(2 R , 3 S ) -3-hydroxypentan-2-yl]oxiran-2-yl] -6-methylhepta-2,4-dien-2-yl] -3,7-dimethyl-12-oxo-1-oxazacyclododec-4-en-6-yl] acetate]",critical functional parameters of aggressiveness and key markers of tumour development/progression/aggressiveness,"glioblastoma (GBM) cells; 10^-7 M, compared to control conditions, U-87 MG, U-118 MG and patient-derived primary GBM cells",decreases
same,several functional parameters in vitro,glioblastoma (GBM) cells; summary statement (Figure 4),reduced
same,glioblastoma (GBM) progression and vascularization,"U-87 MG cells; U-87 MG xenograft, intratumour injection of 50 µl (10^-7 M) versus vehicle-treated flank",alters
same,several functional parameters in vivo,"U-87 MG cells; in vivo, summary statement (Figure 5)",reduced
